The values below come from patent US20120122212A1, “TGF-BETA PATHWAY INHIBITORS FOR ENHANCEMENT OF CELLULAR REPROGRAMMING OF HUMAN CELLS” (priority 2009, published 2012).

One assay relates to Sox2. Put plainly: Sox2 gene expression (Taqman, normalized to GAPDH) in neonatal human dermal fibroblasts. The format is cell-based. As to conditions: for increase in Sox2 expression compared to cells that receive no drug treatment: daily feeding. How it is done:
(§1) Neonatal human dermal fibroblasts (fibroblast cell line NHDF-3955-Neo from Lonza) are cultured under standard cell culture conditions using hFib media (DMEM, 20% Earl's 199 media, 10% FBS, Glutamax, beta-mercaptoethanol (bME)). Approximately 12,000 cells per well are plated on a 12-well plate. 24 hrs after plating, cells are daily fed with media containing 4, 10, 20, 50 or 100 μM GPI-1046 (ACC Corporation) or 1% DMSO. After 6 days, cells are collected and RNA is extracted using a Qiagen RNeasy kit. Gene expression is analyzed using specific Taqman primer-probe sets for Sox2, Oct4, and GAPDH on an ABI 7900HT. Gene expression of cells previously infected with retroviruses encoding Sox2, Oct4, Klf4, and c-Myc (“KSOM”) is also analyzed and is used for positive control purposes. The expression of Sox2 and Oct4 is normalized to the expression of housekeeping gene GAPDH. […] As also indicated in FIG. 1, cells that are treated with 50 μM or 100 μM GPI-1046 express about 5.2-fold and 5.7-fold, respectively, increases in Oct4 when compared to cells that receive no agent treatment and approximately a 3.5- and 3.8-fold increase, respectively, in relative expression of Oct4 when compared to cells that are treated with DMSO.
Neonatal human dermal fibroblasts (fibroblast cell line NHDF-3955-Neo from Lonza) are cultured under standard cell culture conditions using hFib media (DMEM, 20% Earl's 199 media, 10% FBS, Glutamax, beta-mercaptoethanol (bME)). Approximately 12,000 cells per well are plated on a 12-well plate. 24 hrs after plating, cells are daily fed with media containing 2, 5, 25 or 50 μM 616 453 (Calbiochem) or 1% DMSO. After 6 days, cells are collected and RNA is extracted using a Qiagen RNeasy kit. Gene expression is analyzed using specific Taqman primer-probe sets for Sox2 and GAPDH on an ABI 7900HT. Gene expression of cells previously infected with retroviruses encoding Sox2, Oct4, Klf4, and c-Myc (“KSOM”) is also analyzed and is used for positive control purposes. The expression of Sox2 is normalized to the expression of housekeeping gene GAPDH.
(§2) Neonatal human dermal fibroblasts (fibroblast cell line NHDF-3955-Neo from Lonza) are cultured under standard cell culture conditions using hFib media (DMEM, 20% Earl's 199 media, 10% FBS, Glutamax, beta-mercaptoethanol (bME)). Approximately 6,000 cells per well are plated on a 24-well plate. 48 hrs after plating, cells are daily fed with media containing 1 or 100 μM GPI-1046 with or without 0.5 μM Decitabine. On day 7 of treatment, cells are collected and RNA is extracted using a Qiagen RNeasy kit. Gene expression is analyzed using specific Taqman primer-probe sets for Sox2, Oct4 and GAPDH on an ABI 7900HT. The expression of Sox2 and Oct4 is normalized to the expression of housekeeping gene GAPDH.
as §2, with “LY 364947 (Tocris); for 50 μM 616 453 (Calbiochem); 1” for “GPI-1046 with”, “100 μM of A-83-01 (Tocris) or 1 or 100 μM SB 431542 (Tocris). Each treatment was performed in the presence or absence of” for “without”, “using” for “using a”, “Sox2” for “Sox2, Oct4”, “Sox2” for “Sox2 and Oct4”, “GAPDH. […] The morphology of the cells after treatment is depicted in FIG. 5.” for “GAPDH.”
Neonatal human dermal fibroblasts (fibroblast cell line NHDF-3955-Neo from Lonza) are cultured under standard cell culture conditions using hES medium, as described herein. Cells are treated with 0 μM, 2 μM, 10 μM, 50 μM, or 100 μM GPI-1046. […]

A further assay has as its system Klf4. Put plainly: Klf4 gene expression (Taqman, normalized to GAPDH) in neonatal human dermal fibroblasts. The format is cell-based. The note with it: after 6 days. How it is done: (§3) Neonatal human dermal fibroblasts (fibroblast cell line NHDF-3955-Neo from Lonza) are cultured under standard cell culture conditions using hFib media (DMEM, 20% Earl's 199 media, 10% FBS, Glutamax, beta-mercaptoethanol (bME)). Approximately 12,000 cells per well are plated on a 12-well plate. 24 hrs after plating, cells are daily fed with media containing 4, 10 or 20 μM DIM (Sigma) or 1% DMSO. After 6 days, cells are collected and RNA is extracted using a Qiagen RNeasy kit. Gene expression is analyzed using specific Taqman primer-probe sets for Klf4, p21 and GAPDH on an ABI 7900HT. Gene expression of cells previously infected with retroviruses encoding Sox2, Oct4, Klf4, and c-Myc (“KSOM”) is also analyzed and is used for positive control purposes. The expression of Klf4 and p21 is normalized to the expression of housekeeping gene GAPDH.

For the next assay, the system named is p21. Put plainly: p21 gene expression (Taqman, normalized to GAPDH) in neonatal human dermal fibroblasts. The format is cell-based. The note with it: after 6 days. The protocol: as §3
The next assay deals with Oct4. Kind of assay: Oct4 gene expression (Taqman, normalized to GAPDH) in neonatal human dermal fibroblasts. The assay is classed as cell-based. As to conditions: for increase in Oct4 compared to cells that receive no agent treatment / increase in relative expression of Oct4 compared to cells treated with DMSO: after 6 days, hFib media. How it is done:
as §1, §2
Neonatal human dermal fibroblasts (fibroblast cell line NHDF-3955-Neo from Lonza) are cultured under standard cell culture conditions using hES medium, as described herein. Cells are treated with 0 μM, 2 μM, 10 μM, 50 μM, or 100 μM GPI-1046. On day 5 or day 8 after treatment, cells are collected and RNA is extracted using a Qiagen RNeasy kit. Gene expression is analyzed using specific Taqman primer-probe sets for Sox2, Oct4 and GAPDH on an ABI 7900HT. Gene expression of cells previously infected with retroviruses encoding Sox2, Oct4, Klf4, and c-Myc (“KSOM”) is also analyzed and is used for positive control purposes. The expression of Sox2 and Oct4 is normalized to the expression of housekeeping gene GAPDH. […] The morphology of cells infected with viruses encoding KSOM is depicted in FIG. 8.
Background: Quantitative PCR measures a nucleic acid by following its amplification.

The test system of the next assay is human BJ-5Tα fibroblasts. As to conditions: Day 8. The protocol: In the case of compound 616452, cells KSO and KSOM-infected BJ-5Tα fibroblasts were fixed by 4% paraformaldehyde at Day 8, and then incubated with 50 μl 1-Step NBT/BCIP for 20 minutes for AP staining AP staining-positive colonies were counted (see FIGS. 15-16).
A further assay relates to human BJ fibroblasts. As to conditions: BJ fibroblasts (lack TERT), Day 8, reduced sensitivity compared to BJ-5Tα.
For a further assay, the system named is mouse fibroblasts. As to conditions: cited from earlier work.
The mark [1] stands for this setting: 100 μM with 0.5 μM Decitabine, day 7 of treatment.
Setting [2] is: 100 μM, no Decitabine, day 7 of treatment.

Like-named read-outs stand apart in the source and are kept apart here.

Description for human BJ fibroblasts: In order to determine the effect of TGFβR inhibitor compounds on reprogramming we combined low multiplicity of infection (MOI) of retroviruses for three induction factor (Klf4, Sox2, and Oct ¾ or “KSO”) and four induction factor (Klf4, Sox2, Oct3/4, c-Myc or “KSOM”) reprogramming with various TGFβR inhibitors in human BJ-5Tα fibroblasts or BJ fibroblasts. […] By utilizing a low MOI infection protocol, we increased the sensitivity of the assay to detect the ability of various TGFβR inhibitor compounds to enhance the efficiency of reprogramming by three or four induction factor combinations.
Adherent BJ or BJ-5Tα (TERT-immortalized) fibroblast cells were infected “in bulk” with retroviruses for expression of the three induction factors (also referred to as “reprogramming factors”) KLF4, OCT3/4 and SOX2 (“KSO”), or the cells were infected with retroviruses for expression of KLF4, OCT4, SOX2 and c-MYC (“KSOM”), in each case at a multiplicity of infection (MOI) of 1, and transferred into 96-well plates in a serum-free human embryonic stem cell (hES) medium. […] AP activity was determined quantitatively using a chemiluminescent 1,2-dioxetane-phosphate substrate, which upon dephosphorylation by AP forms a metastable phenolate anion intermediate that decomposes emitting light quantified by a microplate luminometer.

Turning to `Cc1cccc(-c2nc(C(C)(C)C)[nH]c2-c2ccc3c(c2)OCO3)n1` [616 453], the “relative Sox2 expression” value in the assay on Sox2 (1 μM, day 7 of treatment) is “an increase in relative Sox2 expression”; with Sox2 (50 μM plus 0.5 μM Decitabine, day 7 of treatment), “an increase in relative Sox2 expression”. In addition, the “Sox2 expression compared to cells that receive no treatment” value in the assay with Sox2 (2, 5, 25 or 50 μM, after 6 days) is listed as “an increase in Sox2 expression”. Further, in the assay on Sox2 (2, 5 and 50 μM, after 6 days), the “relative Sox2 expression compared to cells treated with DMSO” value is recorded as “an increase in relative Sox2 expression”.
Regarding `Cc1cccc(-c2nn(C(=S)Nc3ccccc3)cc2-c2ccnc3ccccc23)n1` [A-83-01], in the assay on Sox2 (1 or 100 μM, absence of Decitabine, day 7 of treatment), the “relative expression of Sox2 compared to control cells” value was “increased relative expression of Sox2”. Moreover, in the assay on Sox2 (1 or 100 μM, presence of 0.5 μM Decitabine, day 7 of treatment), the “relative Sox2 expression compared to control cells” value is listed as “a slight increase of relative Sox2 expression”.
For the molecule `c1ccc2c(Cc3c[nH]c4ccccc34)c[nH]c2c1` [DIM], the “increase in Klf4 expression relative to cells treated with no agent” value in the assay with Klf4 (4 μM) is reported as “approximately 2 fold”. For the same molecule, in the assay on Klf4 (10 μM), the “increase in Klf4 expression compared to cells treated with no agent” value is listed as around 3.2 fold. Moreover, the “increase in p21 expression relative to cells treated with no agent” value in the assay on p21 (4 μM) is given as “approximately 2 fold”. For the same molecule, the “increase in p21 expression compared to cells treated with no agent” value with p21 (10 μM) is “approximately 2 fold”.
For the molecule `CCC(C)(C)C(=O)C(=O)N1CCCC1C(=O)OCCCc1cccnc1` (centres unmarked) [GPI-1046], the “levels of Sox2, Oct3/4 or both versus cells treated with no agent” value with Sox2 (4 μM, 10 μM, or 20 μM, after 6 days, hFib media) is listed as “higher levels of Sox2, Oct3/4 or both”. In addition, in the assay with Sox2 (50 μM or 100 μM, after 6 days, hFib media), the “increase of relative Sox2 expression compared to cells treated with DMSO” value was around 1.6 fold. In addition, the “increase in Sox2 expression compared to cells that receive no drug treatment” value came to 4.4 fold in the assay on Sox2 (50 μM, after 6 days, hFib media) and 4.5 fold in the assay with Sox2 (100 μM, after 6 days, hFib media). Further, the “Sox2 expression compared to control cells” value in the assay with Sox2 (setting [1]) is listed as “slightly increased expression”. Moreover, the “relative Sox2 expression compared to control cells” value in the assay with Sox2 (100 μM, Day 5, hES medium) is on record as “an increase in relative Sox2 expression”. Moreover, the “relative Sox2 expression compared to cells that do not receive drug treatment” value in the assay on Sox2 (100 μM, Day 8, hES medium) is “increases in relative Sox2 and Oct4 expression”. In addition, the “increase in Sox2 expression compared to control cells” value in the assay with Sox2 (setting [2]) is given as around 3.5 fold. Further, the “increase in Oct4 compared to cells that receive no agent treatment” value in the assay on Oct4 (50 μM) was “about 5.2 fold”; with Oct4 (100 μM) it was around 5.7 fold. The “increase in relative expression of Oct4 compared to cells treated with DMSO” value is given as around 3.5 fold in the assay on Oct4 (50 μM) and around 3.8 fold in the assay on Oct4 (100 μM). For the same molecule, the “Oct4 expression compared to control cells” value in the assay with Oct4 (setting [1]) was “slightly increased expression”. Besides, in the assay on Oct4 (100 μM, Day 8, hES medium), the “relative Oct4 expression compared to cells that do not receive drug treatment” value is “increases in relative Sox2 and Oct4 expression”. In addition, in the assay with Oct4 (setting [2]), the “increase in Oct4 expression compared to control cells” value is listed as around 4.3 fold.
As to `NC(=O)c1ccc(-c2nc(-c3ccc4c(c3)OCO4)c(-c3ccccn3)[nH]2)cc1` [SB 431542], in the assay with Sox2 (100 μM plus 0.5 μM Decitabine, day 7 of treatment), the “relative Sox2 expression” value is listed as “an increase in relative Sox2 expression”.
In the case of `Cc1cccc(-c2n[nH]cc2-c2ccc3ncccc3n2)n1` [compound 616452], the “increase in number of AP positive colonies” value with human BJ-5Tα fibroblasts (KSO-infected BJ-5Tα fibroblasts) is “greater than ten fold”; in the assay with human BJ-5Tα fibroblasts (KSOM-infected BJ-5Tα fibroblasts) it was “approximately five fold”. In addition, the alkaline phosphatase activity result in the assay on human BJ fibroblasts (four factor (KSOM) reprogramming) and with human BJ fibroblasts (three factor (KSO) reprogramming) was “increased alkaline phosphatase activity” each time.

B1: Wnt3a: Wnt cell signaling molecule (protein, UniProt P56704 19-352, looked up)
Protein Wnt-3a: SYPIWWSLAVGPQYSSLGSQPILCASIPGLVPKQLRFCRNYVEIMPSVAEGIKIGIQECQHQFRGRRWNCTTVHDSLAIFGPVLDKATRESAFVHAIASAGVAFAVTRSCAEGTAAICGCSSRHQGSPGKGWKWGGCSEDIEFGGMVSREFADARENRPDARSAMNRHNNEAGRQAIASHMHLKCKCHGLSGSCEVKTCWWSQPDFRAIGDFLKDKYDSASEMVVEKHRESRGWVETLRPRYTYFKVPTERDLVYYEASPNFCEPNPETGSFGTRDRTCNVSSHGIDGCDLLCCGRGHNARAERRREKCRCVFHWCCYVSCQECTRVYDVHTCK
As for B1, the “enhancement of reprogramming efficiency” value is “about 20 fold” in the assay on mouse fibroblasts (mouse fibroblasts in the presence of factors Oct4, Sox2 and Klf4); 1.2 fold with mouse fibroblasts (mouse fibroblasts with Oct4, Sox2, Klf4 and c-Myc).
